Data reported in ChEMBL document CHEMBL3804756 (J Med Chem, 2016).

Legend:
Histamine H3 receptor [1] = target: T1, Histamine H3 receptor (Homo sapiens, UniProt Q9Y5N1); test: Agonist activity at human histamine H3 receptor expressed in sf9 cell membrane co-expressing mammalian Galphai2 and Gbeta1gamma2 incubated for 90 mins by [35S]GTPgammaS binding assay; format: functional
Histamine H2 receptor [2] = target: T2, Histamine H2 receptor (Homo sapiens, UniProt P25021); test: Intrinsic activity at human histamine H2 receptor expressed in sf9 cell membrane co-expressing Gsalphas at 10 uM incubated for 90 mins by [35S]GTPgammaS binding assay relative to histamine; format: functional
T2 sequence (P25021 whole entry): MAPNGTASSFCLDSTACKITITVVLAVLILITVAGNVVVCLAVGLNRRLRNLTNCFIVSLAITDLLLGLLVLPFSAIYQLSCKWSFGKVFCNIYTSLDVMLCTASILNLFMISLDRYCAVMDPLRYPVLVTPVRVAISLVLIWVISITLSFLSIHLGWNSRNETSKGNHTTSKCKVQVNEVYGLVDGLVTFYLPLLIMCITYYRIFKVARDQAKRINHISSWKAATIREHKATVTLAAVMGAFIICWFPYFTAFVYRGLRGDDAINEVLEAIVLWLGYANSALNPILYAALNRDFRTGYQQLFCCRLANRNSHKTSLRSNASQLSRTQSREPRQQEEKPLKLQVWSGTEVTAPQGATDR

Histamine H3 receptor [3] = target: T1, Histamine H3 receptor; test: Intrinsic activity at human histamine H3 receptor expressed in sf9 cell membrane co-expressing mammalian Galphai2 and Gbeta1gamma2 at 10 uM incubated for 90 mins by [35S]GTPgammaS binding assay relative to histamine; format: functional
Histamine H3 receptor [4] = target: T1, Histamine H3 receptor; test: Antagonist activity at human histamine H3 receptor expressed in sf9 cell membrane co-expressing mammalian Galphai2 and Gbeta1gamma2 assessed as inhibition of histamine-induced [35S]GTPgammaS binding incubated for 90 mins; format: functional
Histamine H4 receptor [5] = target: T3, Histamine H4 receptor (Homo sapiens, UniProt Q9H3N8); test: Agonist activity at human histamine H4 receptor expressed in sf9 cell membrane co-expressing mammalian Galphai2 and Gbeta1gamma2 incubated for 90 mins by [35S]GTPgammaS binding assay; format: functional
T3 sequence (Q9H3N8 whole entry): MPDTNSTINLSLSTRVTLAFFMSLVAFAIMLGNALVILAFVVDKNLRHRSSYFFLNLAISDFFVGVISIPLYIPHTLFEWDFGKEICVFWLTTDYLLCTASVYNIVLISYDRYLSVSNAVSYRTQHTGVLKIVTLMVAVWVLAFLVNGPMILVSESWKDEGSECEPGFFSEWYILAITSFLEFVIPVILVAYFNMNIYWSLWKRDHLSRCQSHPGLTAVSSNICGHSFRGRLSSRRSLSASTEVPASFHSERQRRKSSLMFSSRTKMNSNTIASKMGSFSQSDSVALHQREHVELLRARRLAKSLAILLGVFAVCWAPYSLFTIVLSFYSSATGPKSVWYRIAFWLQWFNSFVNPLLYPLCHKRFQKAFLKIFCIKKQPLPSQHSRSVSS

Histamine H2 receptor [6] = target: T2, Histamine H2 receptor; test: Antagonist activity at human histamine H2 receptor expressed in sf9 cell membrane co-expressing Gsalphas assessed as inhibition of histamine-induced [35S]GTPgammaS binding incubated for 90 mins; format: functional
Histamine H4 receptor [7] = target: T3, Histamine H4 receptor; test: Displacement of [3H]UR-PI294 from human histamine H4 receptor expressed in sf9 cell membrane co-expressing mammalian Galphai2 and Gbeta1gamma2 incubated for 60 mins by liquid scintillation counting method
Histamine H3 receptor [8] = target: T1, Histamine H3 receptor; test: Displacement of [3H]N-alpha-methylhistamine from human histamine H3 receptor expressed in sf9 cell membrane co-expressing mammalian Galphai2 and Gbeta1gamma2 incubated for 60 mins by liquid scintillation counting method
Histamine H2 receptor [9] = target: T2, Histamine H2 receptor; test: Displacement of [3H]tiotidine from human histamine H2 receptor expressed in sf9 cell membrane co-expressing Gsalphas incubated for 60 mins by liquid scintillation counting method
Histamine H1 receptor = Histamine H1 receptor (Homo sapiens, UniProt P35367); test: Displacement of [3H]mepyramine from human histamine H1 receptor expressed in sf9 cell membrane co-expressing RGS4 incubated for 60 mins by liquid scintillation counting method
Sequence of Histamine H1 receptor (P35367 whole entry): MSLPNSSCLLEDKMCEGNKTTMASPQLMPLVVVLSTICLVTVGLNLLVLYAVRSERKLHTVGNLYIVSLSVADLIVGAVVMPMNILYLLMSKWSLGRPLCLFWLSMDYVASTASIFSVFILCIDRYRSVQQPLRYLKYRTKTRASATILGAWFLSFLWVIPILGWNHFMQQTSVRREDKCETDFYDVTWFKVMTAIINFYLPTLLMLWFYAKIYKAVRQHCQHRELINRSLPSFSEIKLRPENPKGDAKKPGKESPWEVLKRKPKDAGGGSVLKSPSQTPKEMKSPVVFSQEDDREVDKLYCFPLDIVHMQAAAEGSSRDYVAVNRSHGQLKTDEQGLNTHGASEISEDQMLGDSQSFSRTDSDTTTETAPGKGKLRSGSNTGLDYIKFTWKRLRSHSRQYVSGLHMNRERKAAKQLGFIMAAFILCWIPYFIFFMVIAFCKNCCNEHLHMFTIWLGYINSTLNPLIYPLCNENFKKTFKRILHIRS

[10] = target: T4, Histamine H4 receptor (Mus musculus) (UniProt Q91ZY2); test: Intrinsic activity at mouse SF-His6-tagged histamine H4 receptor expressed in HEK293 cells assessed as inhibition of forskolin-stimulated response incubated for 5 hrs by luciferase reporter gene assay relative to histamine; format: cell-based
T4 sequence (whole entry): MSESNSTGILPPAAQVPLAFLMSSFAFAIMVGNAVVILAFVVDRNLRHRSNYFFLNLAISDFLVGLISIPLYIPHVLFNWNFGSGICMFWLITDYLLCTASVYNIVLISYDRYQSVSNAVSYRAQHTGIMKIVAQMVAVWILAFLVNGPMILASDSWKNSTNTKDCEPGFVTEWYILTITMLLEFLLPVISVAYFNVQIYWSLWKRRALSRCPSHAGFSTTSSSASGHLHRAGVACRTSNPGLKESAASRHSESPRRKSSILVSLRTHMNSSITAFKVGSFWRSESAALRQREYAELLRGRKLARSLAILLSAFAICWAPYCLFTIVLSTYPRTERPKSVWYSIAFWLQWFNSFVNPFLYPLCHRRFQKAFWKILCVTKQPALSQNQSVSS

T1 sequence (Q9Y5N1 whole entry): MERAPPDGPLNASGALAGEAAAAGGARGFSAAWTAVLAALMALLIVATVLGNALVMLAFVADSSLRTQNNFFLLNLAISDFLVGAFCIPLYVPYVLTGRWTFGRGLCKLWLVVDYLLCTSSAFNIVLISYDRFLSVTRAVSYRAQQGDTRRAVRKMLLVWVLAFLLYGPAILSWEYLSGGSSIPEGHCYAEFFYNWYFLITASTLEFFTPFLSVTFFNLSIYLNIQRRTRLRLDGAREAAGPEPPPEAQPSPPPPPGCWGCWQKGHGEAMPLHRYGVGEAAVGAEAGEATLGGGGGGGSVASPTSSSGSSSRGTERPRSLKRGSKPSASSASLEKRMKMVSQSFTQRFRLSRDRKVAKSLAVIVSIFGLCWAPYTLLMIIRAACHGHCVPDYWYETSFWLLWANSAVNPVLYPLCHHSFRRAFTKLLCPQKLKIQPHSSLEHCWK

Row | SMILES | EC50 (Histamine H3 receptor [1]) [nM] | Intrinsic activity (Histamine H2 receptor [2]) | Intrinsic activity (Histamine H3 receptor [3]) | Kb (Histamine H3 receptor [4]) [nM] | EC50 (Histamine H4 receptor [5]) [nM] | Kb (Histamine H2 receptor [6]) [nM] | Ki (Histamine H4 receptor [7]) [nM] | Ki (Histamine H3 receptor [8]) [nM] | Ki (Histamine H2 receptor [9]) [nM] | Ki (Histamine H1 receptor) [nM] | Ki (Histamine H1 receptor; sf9) [nM] | Intrinsic activity [10]
1 | N#C/N=C(/NCCCCc1c[nH]cn1)NCCSc1ccccc1 | 720 | 0 | -0.52 | – | – | – | – | – | – | – | – | –
2 | N#C/N=C(/NCCSc1ccccc1)N[C@H]1CC[C@@H](c2c[nH]cn2)CC1 | – | – | – | 1900 | 110 | – | – | – | – | – | – | –
3 | N#C/N=C(/NCCSc1ccccc1)NC[C@H]1CC[C@@H](c2c[nH]cn2)C1 | – | 0 | -0.34 | 528 | 549 | > 10000 | 290 | 745 | 7360 | 6780 | – | –
4 | N#C/N=C(/NCCSc1ccccc1)NC[C@@H]1CC[C@H](c2c[nH]cn2)C1 [listing 1 of 2 here] | – | – | – | – | 293 | – | 180 | 870 | 7250 | 3050 | – | –
5 | CN/C(=N\C#N)NC[C@H]1CC[C@@H](c2c[nH]cn2)C1 | – | 0 | -0.14 | 2810 | 2680 | > 10000 | 3500 | 9500 | > 10000 | > 10000 | – | –
6 | CN/C(=N\C#N)NC[C@@H]1CC[C@H](c2c[nH]cn2)C1 [listing 1 of 2 here] | 212 | – | – | – | 119 | – | 120 | 480 | > 10000 | – | > 10000 | –
7 | CCC(=O)/N=C(\N)NCCCc1c[nH]cn1 | – | 0.8 | 0.4 | – | – | – | – | – | – | – | – | –
8 | CN/C(=N\C#N)NC[C@@H]1CC[C@H](c2c[nH]cn2)C1 [listing 2 of 2 here] | – | 0 | 0.61 | – | – | > 10000 | – | – | – | – | – | –
9 | CN/C(=N\C#N)NC[C@H]1CC[C@H](c2c[nH]cn2)C1 | – | 0 | 0.59 | – | – | > 10000 | – | – | – | – | – | 0.96
10 | CN1CCN(C(=O)c2cc3cc(Cl)ccc3[nH]2)CC1 | – | – | -0.56 | – | – | – | – | – | – | – | – | –
11 | N#C/N=C(/NCCSc1ccccc1)NC[C@@H]1CC[C@H](c2c[nH]cn2)C1 [listing 2 of 2 here] | – | 0 | -0.21 | 718 | – | > 10000 | – | – | – | – | – | –
12 | N#C/N=C(/NCCSc1ccccc1)NC[C@H]1CC[C@H](c2c[nH]cn2)C1 | – | 0 | 0 | 1150 | – | > 10000 | – | – | – | – | – | 0.67
13 | N#C/N=C(/NCCSc1ccccc1)N[C@H]1CC[C@H](c2c[nH]cn2)CC1 | – | – | – | 180 | – | – | – | – | – | – | – | –
14 | S=C(NC1CCCCC1)N1CCC(c2cnc[nH]2)CC1 | – | – | -0.59 | – | – | – | – | – | – | – | – | –
15 | N#C/N=C(\NC[C@H]1CC[C@H](c2c[nH]cn2)C1)NC1CC1 (racemic) | > 10000 | 0 | 0.36 | – | 230 | > 10000 | – | – | – | > 10000 | – | –
16 | N#C/N=C(/NCCOc1ccccc1)NC[C@H]1CC[C@H](c2c[nH]cn2)C1 (racemic) | – | 0 | 0 | 540 | 524 | > 10000 | – | – | – | > 10000 | – | –

Row | SMILES | EC50 (Histamine H3 receptor [1]) [nM] | Intrinsic activity (Histamine H2 receptor [2]) | Intrinsic activity (Histamine H3 receptor [3]) | Kb (Histamine H3 receptor [4]) [nM] | EC50 (Histamine H4 receptor [5]) [nM] | Kb (Histamine H2 receptor [6]) [nM] | Ki (Histamine H4 receptor [7]) [nM] | Ki (Histamine H3 receptor [8]) [nM] | Ki (Histamine H2 receptor [9]) [nM] | Ki (Histamine H1 receptor) [nM] | Ki (Histamine H1 receptor; sf9) [nM] | Intrinsic activity [10]
17 | CN/C(=N\C#N)NC[C@H]1CC[C@H](c2c[nH]cn2)C1 (racemic) [listing 1 of 2 here] | 370 | – | – | – | 206 | – | 240 | 830 | – | > 10000 | – | –
18 | CC(C)CN/C(=N/C#N)NC[C@@H]1CC[C@H](c2c[nH]cn2)C1 (racemic) | 858 | 0 | 0.5 | – | 202 | > 10000 | – | – | – | 8350 | – | –
19 | N#C/N=C(/NCCNc1ccccc1)NC[C@@H]1CC[C@H](c2c[nH]cn2)C1 (racemic) | – | 0 | 0 | 402 | – | > 10000 | – | – | – | > 10000 | – | –
20 | N#C/N=C(/NCCNc1ccccc1)NC[C@H]1CC[C@H](c2c[nH]cn2)C1 (racemic) | – | 0 | 0 | 408 | – | > 10000 | – | – | – | > 10000 | – | –
21 | N#C/N=C(/NCCSc1ccccc1)NC[C@H]1CC[C@H](c2c[nH]cn2)C1 (racemic) | – | – | – | – | 14 | – | 99 | 1230 | – | 6080 | – | –
22 | N#C/N=C(/NCCCc1ccccc1)NC[C@@H]1CC[C@H](c2c[nH]cn2)C1 (racemic) | – | 0 | 0 | 70 | 372 | > 10000 | – | – | – | 9350 | – | –
23 | N#C/N=C(/NCCOc1ccccc1)NC[C@@H]1CC[C@H](c2c[nH]cn2)C1 (racemic) | – | 0 | 0 | 328 | – | > 10000 | – | – | – | > 10000 | – | –
24 | N#C/N=C(/NCCSc1ccccc1)NC[C@@H]1CC[C@H](c2c[nH]cn2)C1 (racemic) | – | – | – | – | 129 | – | 250 | 1350 | – | 3800 | – | –
25 | N#C/N=C(/NCCCc1ccccc1)NC[C@H]1CC[C@H](c2c[nH]cn2)C1 (racemic) | – | 0 | -0.19 | 325 | 125 | > 10000 | – | – | – | > 10000 | – | –
26 | N#C/N=C(\NC[C@@H]1CC[C@H](c2c[nH]cn2)C1)NC1CC1 (racemic) | 1530 | 0 | 0.28 | – | 245 | > 10000 | – | – | – | > 10000 | – | –
27 | CN/C(=N\C#N)NC[C@@H]1CC[C@H](c2c[nH]cn2)C1 (racemic) [listing 1 of 2 here] | 547 | – | – | – | 111 | – | 155 | 860 | – | > 10000 | – | –
28 | CC(C)CN/C(=N/C#N)NC[C@H]1CC[C@H](c2c[nH]cn2)C1 (racemic) | 578 | 0 | 0.54 | – | 15 | > 10000 | – | – | – | 8750 | – | –
29 | CN/C(=N\C#N)NC[C@@H]1CC[C@H](c2c[nH]cn2)C1 (racemic) [listing 2 of 2 here] | – | 0 | 0.51 | – | – | > 10000 | – | – | – | – | – | –
30 | CN/C(=N\C#N)NC[C@H]1CC[C@H](c2c[nH]cn2)C1 (racemic) [listing 2 of 2 here] | – | 0 | -0.46 | – | – | > 10000 | – | – | – | – | – | –
31 | Cc1nc[nH]c1CCN [4-METHYLHISTAMINE] | 12400 | 1 | 0.7 | – | – | – | – | – | – | – | – | –
